“Also recorded” adds a separate entry of the source. *: point of attachment. X1 = CC[N+]1=C(/C=C/C=C/C=C2N(CCCCCC(=O)NCCN3C(=O)CC(*)C3=O)c3ccc(S(=O)(=O)O)cc3C2(C)C)C(C)(C)c2cc(S(=O)(=O)[O-])ccc21
Experiments:
human colonic mucus = experiment: Fluorescent labelling of human colonic mucus layer; assay type: binding; conditions: 1 μg/mL; listed as MUB40#1-Cy5
Method: (§1) Colon explant surgical collection. In summary, human colon segments (ascending, descending, and sigmoid colon) were obtained from fully informed patients undergoing surgery for colon carcinoma and were analyzed anonymously. Patient written consent was obtained, according to the French bioethics law. None of the patients had undergone radiotherapy or chemotherapy. According to the pathologist's examination rules for the longitudinally bisected colon, a healthy segment of tissue, which was distant from the tumor region and devoid of metastatic cells, was removed. Tissues were processed according to the French Government guidelines for research on human tissues and the French Bioethics Act with the authorization no RBM 2009-50.
Fixation and staining procedures. For microscopy studies, purified or cultured cells and polymerized lactoferrin were resuspended onto 24-well plates containing 12 mm coverslips in RMPI 1640+10 mM Hepes (when cultured in the autologous plasma) and centrifuged at 300×g for 10 min. Culture media were removed and cells were fixed in 4% Paraformaldehyde (PFA) for two hours. Fixed cells were washed three times in PBS+0.1% saponin (Sigma-Aldrich), prior immunolabeling with primary antibodies in the same buffer for 1 hour (Triton 0.1% can alternatively be used for cell permeabilization). After three additional washes in PBS+0.1% saponin, secondary antibodies and fluorescent markers were incubated for one hour. […]
(§2) Antibodies, fluorescent markers. For immunofluorescence assay, lactoferrin was detected with a mouse anti-lactoferrin primary monoclonal antibody (Hycult biotech, clone 265-1K1, 1:50 dilution) and an anti-mouse-FITC conjugated secondary antibody (1:1000). Nuclei were detected with DAPI (Life Technologies), Lyophilized MUB40 peptides (MUB40#1 (SEQ ID NO: 3)-Cy5, MUB40#2 (SEQ ID NO: 4)-Cy5, MUB40#3 (SEQ ID NO: 5)-Cy5, MUB40#4 (SEQ ID NO: 6)-Cy5, MUB40#1 (SEQ ID NO: 3)-Dylight, RI-MUB40 (SEQ ID NO: 2)-Cy5, and RI-MUB40 (SEQ ID NO: 2)-Biotin) were solubilized in a phosphate buffer pH8 at a 1 mg/mL concentration and used at a 1:1000 dilution. […]

[1] = test system: Colonic goblet cell granules; experiment: Fluorescent labelling of colonic goblet cell granules on fixed slides; assay type: cell-based, human; conditions: 1 μg/mL
Method: as §1, §2

[2] = test system: Peripheral blood mononuclear cells (PBMC); experiment: Fluorescent labelling of PBMC; assay type: cell-based, human; conditions: PBMC fixed in PFA 3%
Text: Antibodies, fluorescent markers. For immunofluorescence assay, lactoferrin was detected with a mouse anti-lactoferrin primary monoclonal antibody (Hycult biotech, clone 265-1K1, 1:50 dilution) and an anti-mouse-FITC conjugated secondary antibody (1:1000). Nuclei were detected with DAPI (Life Technologies), Lyophilized MUB40 peptides (MUB40#1 (SEQ ID NO: 3)-Cy5, MUB40#2 (SEQ ID NO: 4)-Cy5, MUB40#3 (SEQ ID NO: 5)-Cy5, MUB40#4 (SEQ ID NO: 6)-Cy5, MUB40#1 (SEQ ID NO: 3)-Dylight, RI-MUB40 (SEQ ID NO: 2)-Cy5, and RI-MUB40 (SEQ ID NO: 2)-Biotin) were solubilized in a phosphate buffer pH8 at a 1 mg/mL concentration and used at a 1:1000 dilution. For PBMC staining CD19-APC (B lymphocytes), CD3-APC (T lymphocytes), and CD14-PercP (monocytes, macrophages) (BD Bioscience) were used at a 1:1000 dilution together with Dapi (1:1000) and MUB40-Cy5 (1 mg/mL). Actin was stained with Phalloidin-Rhodamine red X (RRX) (Jackson Immunoresearch Antibodies) used at a 1:1000 final dilution.
Polymorphonuclear neutrophils purification. Human polymorphonuclear neutrophils were purified as described previously (Monceaux et al. 2016). Briefly, plasma was removed by centrifugation (450×g, 15 min); blood cells were resuspended in 0.9% NaCl solution supplemented with 0.72% Dextran. […]

[3] = test system: neutrophils recruited to guinea pig colonic mucosa infected with Shigella flexneri; experiment: Guinea pig model of shigellosis, staining of fixed colon sections
Method: Guinea pig. The experimental protocol was approved by the french Ethic Committee Paris (n° 20140069, 2014). Young guinea pigs (Hartley, <150 g, Charles River) were anaesthetized and infected intrarectally with 10^9 CFU exponentially grown Shigella flexneri 5a (M90T) pGFP as previously described (Shim et al. 2007) (Monceaux et al. 2016). Infection occurred during 8 hours before animals were sacrificed and infected colons collected and fixed in 4% Paraformaldehyde (PFA) for two hours. For immunohistochemical staining, infected guinea pig colon samples were washed in PBS and incubated at 4° C. in PBS containing 16% sucrose for 4 hours, followed by incubation in PBS with 30% sucrose overnight. Samples were frozen in OCT (VWR 361603E) on dry ice. Frozen blocks were stored at −80 until sectioning. 10 to 30 μm sections were obtained using a cryostat CM-3050S (Leica). Tissue slices were labeled in PBS+0.1% saponin (Sigma-Aldrich) with MUB40-Cy5 or MUB40-Dylight (1 μg/ml) to localize recruited neutrophils. Slides were washed three time in PBS+0.1% saponin, three times in PBS, and three times in deionized H2O and mounted with prolong gold^tm mounting media.

[4] = test system: cystic fibrosis (CF) patients sputum; experiment: CF patient sputum immunofluorescent staining; parameters: species or system human; conditions: together with anti-Muc2 and anti-Muc5ac antibodies, 1 μg/mL
Method: FIG. 4. CF patient sputum immunofluorescent staining with MUB40-Cy5 (SEQ ID NO: 3), anti-Muc2 and anti-Muc5ac antibodies (with secondary antibodies conjugated with FITC and Rhodamin respectively).
Muc2 was stained with an anti-Mucin2 antibody (green). Muc5ac was stained with an anti-Mucin5ac antibody (red). Tissue was additionally stained with MUB40-Cy5 (1 μg/mL, magenta). DNA was stained with Dapi (blue).

Substance: Ac-C(X1)TAEGIKKFEGDGYELFKDNFPAGEKFDNDDTNDQFYTVIF-NH2 [Cy5-MUB40#1]
- labelling of / binding to human colonic mucus (human colonic mucus): labelled; also recorded: conserved the ability to bind to and fluorescently label the human colonic mucus
- labelling of colonic goblet cell granules [1]: labelled
- staining of CD3+, CD14+ and CD19+ cells [2]: not stained
- detection of neutrophil lactoferrin secretion ([3]; fixed guinea pig colonic mucosa infected by Shigella flexneri, 1 μg/mL): successfully revealed
- labelling of recruited neutrophils ([3]; guinea pig colon, Shigella flexneri, 1 μg/ml): specifically labeled
- labelling of CF patients sputum [4]: labeled
